Experiments:
[1] = target: T1, Delta-type opioid receptor (Homo sapiens, UniProt P41143); experiment: Displacement of [3H]naltrindole from human delta opioid receptor expressed in CHO cell membrane; type: cell membranes
[2] = Metabolic stability in human liver microsomes assessed as drug remaining after 30 mins; type: ADME, Microsome; settings: read-out: Stability
[3] = target: T2, Nociceptin receptor (Homo sapiens, UniProt P41146); experiment: Antagonist activity at human ORL1 receptor by [35S]GTPgammaS binding assay; type: functional
[4] = target: T3, Mu-type opioid receptor (Homo sapiens, UniProt P35372); experiment: Agonist activity at human mu opioid receptor expressed in CHO cell membrane by [35S]GTPgammaS binding assay; type: functional, cell membranes
[5] = target: T4, Kappa-type opioid receptor (Homo sapiens, UniProt P41145); experiment: Displacement of [3H]U-69593 from human kappa opioid receptor expressed in CHO cell membrane; type: cell membranes
[6] = target: T4, Kappa-type opioid receptor; experiment: Agonist activity at human kappa opioid receptor expressed in CHO cell membrane by [35S]GTPgammaS binding assay
[7] = target: T1, Delta-type opioid receptor; experiment: Agonist activity at human delta opioid receptor expressed in CHO cell membrane by [35S]GTPgammaS binding assay; type: functional, cell membranes
[8] = target: T3, Mu-type opioid receptor; experiment: Displacement of [3H]diprenorphin from human mu opioid receptor expressed in CHO cell membrane; type: cell membranes
[9] = target: T2, Nociceptin receptor; experiment: Displacement of [125I]Tyr14-NC/OFQ from human ORL1 receptor
[10] = Half life in ICR mouse at 3 mg/kg, po and 1 mg/kg, iv; type: ADME, organism-based; settings: in vivo
[11] = Clearance in Sprague-Dawley rat at 3 mg/kg, po and 1 mg/kg, iv; type: ADME, organism-based; settings: in vivo
[12] = target: Synaptic vesicular amine transporter (Homo sapiens) (UniProt Q05940); experiment: Inhibition of monoamine transporter at 10 uM
[13] = Bioavailability in Sprague-Dawley rat at 3 mg/kg, po and 1 mg/kg, iv; type: ADME, organism-based; settings: in vivo
[14] = target: hERG (KCNH2) (Homo sapiens, UniProt Q12809); experiment: Inhibition of human ERG at 10 uM
[15] = Half life in Sprague-Dawley rat at 3 mg/kg, po and 1 mg/kg, iv; type: ADME, organism-based; settings: in vivo
[16] = system: Mus musculus; experiment: Biodistribution in ICR mouse brain at 30 mg/kg, po after 60 mins; type: ADME, organism-based; design: dose 30 mg/kg, route oral; settings: in vivo, 1 h
[17] = Clearance in ICR mouse at 3 mg/kg, po and 1 mg/kg, iv; type: ADME, organism-based; settings: in vivo
[18] = Ratio of drug level in brain to plasma in ICR mouse at 30 mg/kg, po after 60 mins; type: ADME, organism-based; design: dose 30 mg/kg, route oral; settings: read-out: BPR
[19] = Bioavailability in rhesus monkey at 3 mg/kg, po and 1 mg/kg, iv; type: ADME, organism-based, Macaca mulatta; settings: in vivo
[20] = Biodistribution in ICR mouse plasma at 30 mg/kg, po after 60 mins; type: ADME, organism-based; design: dose 30 mg/kg, route oral; settings: read-out: Drug uptake
[21] = Half life in rhesus monkey at 3 mg/kg, po and 1 mg/kg, iv; type: ADME, organism-based, Macaca mulatta; settings: in vivo
[22] = Bioavailability in ICR mouse at 3 mg/kg, po and 1 mg/kg, iv; type: ADME, organism-based; settings: in vivo
[23] = target: 5-hydroxytryptamine receptor 2B (Homo sapiens) (UniProt P41595); experiment: Inhibition of 5HT2B receptor at 10 uM
[24] = Inhibition of sodium channel site 2 at 10 uM
[25] = Clearance in rhesus monkey at 3 mg/kg, po and 1 mg/kg, iv; type: ADME, organism-based, Macaca mulatta; settings: in vivo

T1 sequence (P41143 whole entry): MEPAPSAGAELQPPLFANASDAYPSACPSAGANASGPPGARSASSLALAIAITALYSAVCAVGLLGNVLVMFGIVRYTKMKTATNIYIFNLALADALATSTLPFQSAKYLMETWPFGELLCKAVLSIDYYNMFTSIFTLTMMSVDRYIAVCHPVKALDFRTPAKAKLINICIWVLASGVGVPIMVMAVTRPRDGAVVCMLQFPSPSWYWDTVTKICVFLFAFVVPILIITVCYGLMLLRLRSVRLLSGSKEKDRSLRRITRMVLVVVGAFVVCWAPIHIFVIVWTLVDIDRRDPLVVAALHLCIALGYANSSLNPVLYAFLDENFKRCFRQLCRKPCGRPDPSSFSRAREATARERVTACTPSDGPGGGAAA
T2 sequence (P41146 whole entry): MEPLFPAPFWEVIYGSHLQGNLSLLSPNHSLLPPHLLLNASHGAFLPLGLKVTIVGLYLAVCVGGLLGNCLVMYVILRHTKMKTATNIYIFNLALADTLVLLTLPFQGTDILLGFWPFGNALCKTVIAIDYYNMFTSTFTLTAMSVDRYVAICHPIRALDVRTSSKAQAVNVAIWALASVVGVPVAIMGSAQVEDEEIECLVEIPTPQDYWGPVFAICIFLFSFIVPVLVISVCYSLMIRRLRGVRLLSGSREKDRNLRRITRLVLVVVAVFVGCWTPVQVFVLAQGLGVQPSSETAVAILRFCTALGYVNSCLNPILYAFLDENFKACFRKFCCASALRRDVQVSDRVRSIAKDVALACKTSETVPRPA
T3 sequence (P35372 whole entry): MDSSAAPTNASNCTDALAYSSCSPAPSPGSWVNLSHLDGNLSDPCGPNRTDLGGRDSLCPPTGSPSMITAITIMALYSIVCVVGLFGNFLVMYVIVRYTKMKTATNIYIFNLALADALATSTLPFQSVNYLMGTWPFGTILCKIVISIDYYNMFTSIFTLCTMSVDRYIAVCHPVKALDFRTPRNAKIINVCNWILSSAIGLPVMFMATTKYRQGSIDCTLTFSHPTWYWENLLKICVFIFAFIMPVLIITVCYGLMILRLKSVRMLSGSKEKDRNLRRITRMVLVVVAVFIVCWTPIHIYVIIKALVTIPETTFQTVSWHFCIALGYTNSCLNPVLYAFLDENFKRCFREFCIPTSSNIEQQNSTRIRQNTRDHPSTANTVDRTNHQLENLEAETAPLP
T4 sequence (P41145 whole entry): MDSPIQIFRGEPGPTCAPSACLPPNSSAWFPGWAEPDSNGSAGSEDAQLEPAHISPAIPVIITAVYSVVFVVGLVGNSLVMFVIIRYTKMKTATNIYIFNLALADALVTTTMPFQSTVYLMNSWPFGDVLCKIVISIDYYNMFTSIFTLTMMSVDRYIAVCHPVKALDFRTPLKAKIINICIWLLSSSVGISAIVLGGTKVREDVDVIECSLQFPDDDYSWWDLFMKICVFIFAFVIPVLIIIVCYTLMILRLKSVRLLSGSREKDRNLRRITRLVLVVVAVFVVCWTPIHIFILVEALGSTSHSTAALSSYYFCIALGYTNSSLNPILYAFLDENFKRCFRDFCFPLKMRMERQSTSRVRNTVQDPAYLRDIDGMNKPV
Chain of Synaptic vesicular amine transporter (Homo sapiens) (Q05940 whole entry): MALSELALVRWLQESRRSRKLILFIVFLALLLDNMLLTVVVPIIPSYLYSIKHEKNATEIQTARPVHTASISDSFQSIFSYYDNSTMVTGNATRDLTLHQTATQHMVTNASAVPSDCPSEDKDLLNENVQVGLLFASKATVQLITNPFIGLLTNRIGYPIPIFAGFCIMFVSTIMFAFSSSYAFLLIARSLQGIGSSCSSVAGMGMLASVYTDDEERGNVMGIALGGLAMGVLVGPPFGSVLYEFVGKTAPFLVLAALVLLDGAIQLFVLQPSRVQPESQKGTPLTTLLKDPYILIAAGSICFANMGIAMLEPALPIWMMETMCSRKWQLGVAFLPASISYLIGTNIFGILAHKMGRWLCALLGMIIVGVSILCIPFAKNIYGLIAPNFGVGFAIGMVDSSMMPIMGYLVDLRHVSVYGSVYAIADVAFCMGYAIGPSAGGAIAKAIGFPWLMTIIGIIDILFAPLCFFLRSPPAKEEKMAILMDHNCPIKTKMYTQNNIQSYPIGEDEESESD
Chain of hERG (KCNH2) (Q12809 whole entry): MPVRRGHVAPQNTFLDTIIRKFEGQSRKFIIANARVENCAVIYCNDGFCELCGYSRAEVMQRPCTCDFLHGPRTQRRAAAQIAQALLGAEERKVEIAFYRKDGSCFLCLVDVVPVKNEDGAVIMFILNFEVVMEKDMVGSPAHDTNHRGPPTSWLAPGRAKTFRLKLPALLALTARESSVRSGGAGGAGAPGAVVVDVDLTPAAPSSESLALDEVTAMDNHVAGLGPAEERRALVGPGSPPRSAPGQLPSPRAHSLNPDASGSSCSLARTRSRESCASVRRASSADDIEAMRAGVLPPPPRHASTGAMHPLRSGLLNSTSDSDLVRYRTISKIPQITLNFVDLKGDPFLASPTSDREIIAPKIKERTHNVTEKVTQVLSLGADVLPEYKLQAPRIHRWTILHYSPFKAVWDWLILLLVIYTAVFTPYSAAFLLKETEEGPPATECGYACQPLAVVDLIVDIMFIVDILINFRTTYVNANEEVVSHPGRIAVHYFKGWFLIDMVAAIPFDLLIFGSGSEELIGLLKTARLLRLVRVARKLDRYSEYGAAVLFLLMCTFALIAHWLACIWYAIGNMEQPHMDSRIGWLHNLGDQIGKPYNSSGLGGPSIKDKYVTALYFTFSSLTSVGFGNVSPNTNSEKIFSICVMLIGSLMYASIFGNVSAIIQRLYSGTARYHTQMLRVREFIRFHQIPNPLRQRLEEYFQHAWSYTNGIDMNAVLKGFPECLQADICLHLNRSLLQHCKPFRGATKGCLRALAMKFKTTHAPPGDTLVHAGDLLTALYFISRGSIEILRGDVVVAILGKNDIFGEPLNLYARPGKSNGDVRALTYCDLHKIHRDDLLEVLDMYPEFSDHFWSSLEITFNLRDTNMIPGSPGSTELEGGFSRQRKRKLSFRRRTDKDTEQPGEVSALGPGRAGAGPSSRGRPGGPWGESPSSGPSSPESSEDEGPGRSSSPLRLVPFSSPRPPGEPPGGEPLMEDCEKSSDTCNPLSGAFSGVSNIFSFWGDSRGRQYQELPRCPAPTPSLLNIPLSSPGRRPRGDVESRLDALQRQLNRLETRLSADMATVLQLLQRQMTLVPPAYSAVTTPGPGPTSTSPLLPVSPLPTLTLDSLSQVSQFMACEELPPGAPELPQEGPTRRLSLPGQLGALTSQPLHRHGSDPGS
Chain of 5-hydroxytryptamine receptor 2B (Homo sapiens) (P41595 whole entry): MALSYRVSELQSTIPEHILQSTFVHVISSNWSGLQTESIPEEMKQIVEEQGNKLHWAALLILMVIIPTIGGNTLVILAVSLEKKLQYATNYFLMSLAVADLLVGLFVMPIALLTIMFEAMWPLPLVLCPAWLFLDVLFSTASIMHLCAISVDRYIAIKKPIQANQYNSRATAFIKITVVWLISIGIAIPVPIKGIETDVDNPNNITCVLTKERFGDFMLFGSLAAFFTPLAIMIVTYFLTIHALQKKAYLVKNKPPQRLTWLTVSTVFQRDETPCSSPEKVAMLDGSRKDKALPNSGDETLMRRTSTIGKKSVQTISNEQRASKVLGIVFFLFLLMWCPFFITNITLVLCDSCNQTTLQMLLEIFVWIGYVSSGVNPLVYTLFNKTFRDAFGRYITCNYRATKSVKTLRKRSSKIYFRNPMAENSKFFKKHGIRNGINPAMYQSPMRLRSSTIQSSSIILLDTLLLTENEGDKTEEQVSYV

Q: For `CC(C)(C)Sc1nc2cc(Cl)c(N3CCN(CCO)CC3)cc2[nH]1`, which IC50 [1] is on record?
A: Its IC50 is greater than 1 µM.

Q: What about the remaining at 0.5 h [2] of the same molecule?
A: The remaining at 0.5 h was 71%.

Q: With `CCC(C)(CC)Sc1nc2cc(Cl)c(N3CCN(CCO)CC3)cc2[nH]1` as the molecule, how does the remaining at 0.5 h [2] read?
A: The remaining at 0.5 h was 36%.

Q: For `C[C@H]1CN(CCO)CCN1c1cc2[nH]c(SC(C)(C)C)nc2cc1Cl`, which IC50 [3] is on record?
A: Its IC50 is 0.0022 µM.

Q: And the IC50 [1]?
A: Its IC50 is 0.238 µM.

Q: And the IC50 [4]?
A: The IC50 was 0.025 µM.

Q: What about the remaining at 0.5 h [2] of the same molecule?
A: Its remaining at 0.5 h is 70%.

Q: And the IC50 [5]?
A: The IC50 was 0.0053 µM.

Q: What about the EC50 [6] of the same molecule?
A: The EC50 was 0.018 µM.

Q: And the EC50 [7]?
A: The EC50 was 0.014 µM.

Q: And the Emax [7]?
A: Its Emax is 94%.

Q: And the IC50 [8]?
A: The IC50 was 0.067 µM.

Q: And the IC50 [9]?
A: Its IC50 is 0.0011 µM.

Q: With `CCC(CC)Sc1nc2cc(Cl)c(N3CCN(CCO)C(C)(C)C3)cc2[nH]1` as the molecule, how does the IC50 [3] read?
A: Its IC50 is 0.059 µM.

Q: What about the remaining at 0.5 h [2] of the same molecule?
A: The remaining at 0.5 h was 7%.

Q: What about the IC50 [9] of the same molecule?
A: The IC50 was 0.073 µM.

Q: For `CCC(CC)Sc1nc2cc(Cl)c(N3C[C@@H]4C[C@H]3CN4CCO)cc2[nH]1`, which IC50 [3] is on record?
A: The IC50 was 0.027 µM.

Q: And the remaining at 0.5 h [2]?
A: Its remaining at 0.5 h is 63%.

Q: What about the IC50 [9] of the same molecule?
A: Its IC50 is 0.018 µM.

Q: Which IC50 [3] does the source give for `C[C@@H]1CN(CCO)CCN1c1cc2[nH]c(SC(C)(C)C)nc2cc1Cl` here?
A: Its IC50 is 0.00065 µM.

Q: And the half-life [10]?
A: The half-life was 48.6 min.

Q: And the clearance [11]?
A: Its clearance is 4.86 L/h/kg.

Q: What about the IC50 [1] of the same molecule?
A: Its IC50 is greater than 1 µM.

Q: And the inhibition [12]?
A: The inhibition was 52%.

Q: What about the bioavailability [13] of the same molecule?
A: The bioavailability was 29%.

Q: What about the inhibition at 10 µM [14] of the same molecule?
A: Its inhibition at 10 µM is 86%.

Q: And the half-life [15]?
A: Its half-life is 55.2 min.

Q: What about the IC50 [4] of the same molecule?
A: Its IC50 is 0.097 µM.

Q: And the remaining at 0.5 h [2]?
A: The remaining at 0.5 h was 87%.

Q: What about the Drug uptake [16] of the same molecule?
A: Its Drug uptake is 1.04 µmol/kg.

Q: What about the clearance [17] of the same molecule?
A: The clearance was 7.26 L/h/kg.

Q: And the Kp at 1 h [18]?
A: Its Kp at 1 h is 0.47.

Q: What about the IC50 [5] of the same molecule?
A: Its IC50 is 0.12 µM.

Q: And the bioavailability [19]?
A: The bioavailability was 37%.

Q: What about the concentration at 1 h [20] of the same molecule?
A: The concentration at 1 h was 2.38 µM.

Q: What about the IC50 [6] of the same molecule?
A: The IC50 was 0.18 µM.

Q: And the IC50 [7]?
A: Its IC50 is 1.2 µM.

Q: And the half-life [21]?
A: Its half-life is 186 min.

Q: And the bioavailability [22]?
A: Its bioavailability is 33%.

Q: What about the inhibition [23] of the same molecule?
A: Its inhibition is 52%.

Q: And the inhibition [24]?
A: The inhibition was 68%.

Q: What about the clearance [25] of the same molecule?
A: The clearance was 1.2 L/h/kg.

Q: And the IC50 [8]?
A: Its IC50 is 1.9 µM.

Q: And the IC50 [9]?
A: Its IC50 is 0.0026 µM.

Q: For `CCC(CC)Sc1nc2cc(Cl)c(N3CCN(CCO)C(C)C3)cc2[nH]1` (racemic), which IC50 [3] is on record?
A: Its IC50 is 0.022 µM.

Q: What about the remaining at 0.5 h [2] of the same molecule?
A: The remaining at 0.5 h was 17%.

Q: And the IC50 [9]?
A: The IC50 was 0.008 µM.

Reference: ChEMBL document CHEMBL1150320, “Novel ORL1-selective antagonists with oral bioavailability and brain penetrability” (Bioorg Med Chem Lett, 2008)
